Laboratory results as given in patent publication US6710090B2, “Inhibitory or blocking agents of molecular generating and/or inducing functions” (priority 1994, dated 2004).

How the values were obtained:
human fibrinogen = target: T1, human fibrinogen (Homo sapiens, UniProt P02671+P02675+P02679); experiment: Composition of amino acids in fibrinogen; format: biochemical; conditions: Yoshixol 4 μl
T1 sequence (P02671 20-629 limits assumed): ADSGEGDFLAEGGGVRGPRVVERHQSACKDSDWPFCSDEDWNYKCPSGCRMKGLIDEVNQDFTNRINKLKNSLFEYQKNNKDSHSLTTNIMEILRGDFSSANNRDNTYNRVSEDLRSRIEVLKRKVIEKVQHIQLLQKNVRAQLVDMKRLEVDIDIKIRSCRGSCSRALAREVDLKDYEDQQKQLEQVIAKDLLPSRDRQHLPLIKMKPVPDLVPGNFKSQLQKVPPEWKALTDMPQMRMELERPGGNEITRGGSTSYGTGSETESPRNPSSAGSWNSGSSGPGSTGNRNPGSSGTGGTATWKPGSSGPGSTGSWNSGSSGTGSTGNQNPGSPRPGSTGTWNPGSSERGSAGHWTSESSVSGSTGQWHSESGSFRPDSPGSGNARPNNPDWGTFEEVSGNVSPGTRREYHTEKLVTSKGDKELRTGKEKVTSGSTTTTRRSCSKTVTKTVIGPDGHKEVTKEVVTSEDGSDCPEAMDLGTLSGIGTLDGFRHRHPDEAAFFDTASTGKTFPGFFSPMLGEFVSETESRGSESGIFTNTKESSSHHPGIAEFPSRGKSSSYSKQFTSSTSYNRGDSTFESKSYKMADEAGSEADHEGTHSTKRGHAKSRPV
T1 sequence (P02675 31-491): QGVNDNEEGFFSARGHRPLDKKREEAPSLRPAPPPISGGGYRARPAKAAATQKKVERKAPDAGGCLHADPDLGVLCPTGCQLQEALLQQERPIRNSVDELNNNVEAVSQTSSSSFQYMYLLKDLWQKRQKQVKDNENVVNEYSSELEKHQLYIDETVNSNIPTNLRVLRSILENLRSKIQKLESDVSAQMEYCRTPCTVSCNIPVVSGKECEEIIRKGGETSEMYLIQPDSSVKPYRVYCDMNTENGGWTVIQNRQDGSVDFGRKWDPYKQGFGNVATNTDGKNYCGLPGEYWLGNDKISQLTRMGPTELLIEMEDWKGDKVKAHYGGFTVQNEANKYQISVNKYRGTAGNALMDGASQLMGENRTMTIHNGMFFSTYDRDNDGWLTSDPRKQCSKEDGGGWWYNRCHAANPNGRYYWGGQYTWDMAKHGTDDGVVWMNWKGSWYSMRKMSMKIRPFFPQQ
T1 sequence (P02679 27-433 limits assumed): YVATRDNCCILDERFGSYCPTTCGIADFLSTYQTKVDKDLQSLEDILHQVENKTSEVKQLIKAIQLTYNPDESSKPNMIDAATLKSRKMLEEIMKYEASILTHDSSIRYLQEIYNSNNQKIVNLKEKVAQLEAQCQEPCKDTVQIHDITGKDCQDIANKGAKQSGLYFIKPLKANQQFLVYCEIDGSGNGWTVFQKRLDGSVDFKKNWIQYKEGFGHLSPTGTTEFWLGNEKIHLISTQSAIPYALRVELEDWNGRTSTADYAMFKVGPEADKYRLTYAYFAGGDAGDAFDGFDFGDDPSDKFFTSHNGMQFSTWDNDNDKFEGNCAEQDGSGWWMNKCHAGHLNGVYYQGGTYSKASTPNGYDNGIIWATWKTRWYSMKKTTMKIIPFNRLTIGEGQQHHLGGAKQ
Experimental: Changes in composition of amino acids were analyzed by use of 1 ml of human blood serum, 1 ml of human fibrinogen (concentration of 160 mg/dl), 1 ml of human thrombin before and after treatment with Yoshixol (4 μl). The total amino acids in the human blood serum which was treated with Yoshixol decreased by 41%. And, ratio of each composition was altered after the treatment so that as an example the concentration of phosphoserine increased about 20 times which level was from 7.2 picomole to 164.8 picomole.

vasopressin = target: T2, vasopressin (Homo sapiens, UniProt P01185); experiment: Physiological function of vasopressin treated with Yoshixol, blood pressure; format: in vivo; conditions: rabbit, intravenous vasopressin 100 ng/Kg treated with Yoshixol 4 μl; untreated vasopressin 15-25 mmHg
T2 construct: Effect on Physiological Function of Vasopressin and Insulin as Peptides; purchased Sigma Co. Saint Louis, Mo., USA
Experimental: Each vasopressin and insulin has a physiological effect such as a rise of blood pressure and a fall of sugar level in blood respectively. An effect of Yoshixol on these physiological functions was investigated and compared by injection of each hormone without or with treatment with Yoshixol in rabbit in vivo. When vasopressin (100 ng/Kg, Sigma Co. Saint Louis, Mo., USA) without treatment with Yoshixol was injected intravenously, blood pressure increased by 15-25 mmHg so that this increased level was maintained for about 25 minutes. But, vasopressin (100 ng/Kg) treated with Yoshixol (4 μl) caused a increase in blood pressure of only about 5 mmHg (referred FIG. 6).

HeLa cells = experiment: Anti-cancer effect, cultured HeLa cells; format: cell-based; conditions: compared with keratinocytes treated with Yoshixol

Structure (SMILES): C=C1CC(C)(C)C=CC1=O [Yoshixol, 4,4-dimethyl-6-methylene-2-cyclohexen-1-one]
- concentration of the total amino acids in fibrinogen (human fibrinogen; 1 ml human fibrinogen 160 mg/dl): did not change
- increase of concentration of cystathione in fibrinogen (human fibrinogen): more than 5 times
- glutamic acid and hydroxyl serine in fibrinogen (human fibrinogen; existed before treatment): disappeared
- increase in blood pressure (vasopressin): about 5 mmHg
- structure between cells and cellular aspect (HeLa cells): observations similar to the above were found
